Experiments:
Test in all cases: Two sequential high dose trichostatin A treatments (24 h each), gene expression by RT-PCR (Example 8)
Assay type in all cases: cell-based, human
[1] = tested on: amniotic fluid-derived cell line; details: for Gata1 gene expression / HNF-3 beta gene expression / Insulin gene expression / Pdx-1 gene expression / sox17 gene expression: 1.25 μM 0-24 h + 96-120 h
Procedure: (§1) Several cell lines obtained from different amniotic fluid specimens (see Example 14) and pancreas donors (see Example 13) were tested with similar results. Two lines at similar passage number but derived from different amniotic fluid specimens are shown in Table VIII-A and Table VIII-B for this example. One of these cell lines was also used in examples 2 and 4 above. In addition, this example also contains comparison data in Table VIII-C and Table VIII-D for a single pancreatic-derived stromal line grown to early and late passage number.
(§2) Amniotic fluid derived cells or pancreatic-derived stromal cells were seeded into 24-well tissue culture plates at a density of 5000/cm^2 and cultured in AMNIOMAX (Invitrogen) or DMEM with 10% FBS respectively under standard cell culture conditions until confluent. After the cells reached confluency, amniotic fluid derived cells were treated at time 0 hours with a dose of 1.25 μM trichostatin A, and pancreatic-derived stromal cells were treated with a dose of 5.0 μM trichostatin A solubilized in DMSO and medium. At time 24 hours, cell cultures underwent a complete medium change to remove all traces of trichostatin A. At time 96 hours, cell cultures were re-fed with fresh medium and received a second dose of trichostatin A at the same concentration as used previously. At time 120 hours, cell cultures again underwent a complete medium change and were cultured for an additional 24 hours or […] total incubation time.
(§3) Samples were taken daily for RT-PCR at the times indicated in Table VIII-A to D. The culture media was removed, and samples were rinsed in PBS then collected in RLT with β-mercaptoethanol (Qiagen). RNA was purified using the RNeasy Mini Kit (Qiagen) and RNA quantity and quality were determined using a spectrophotometer. cDNA was made using the iScript cDNA synthesis kit (BioRad).
(§4) Samples of 20 ng cDNA were used in each reaction to determine the expression levels of the following genes in amniotic fluid-derived cells: Gata1, HNF-3 beta, Pdx-1, insulin, and Sox17. Similarly, samples of 20 ng cDNA were used in each reaction to determine the expression level of the following genes in pancreatic-derived cells: glucagon, HNF-3 beta, insulin and Pdx-1. Real-Time PCR was performed on the Applied Biosystems 7500, and data was analyzed using the accompanying software according to the methods described in Example 15.
(§5) Real-time PCR amplifcation and quantitative analysis. Unless otherwise stated, all reagents were purchased from Applied Biosystems. Real-time PCR reactions were performed using the ABI PRISM™ 7500 Sequence Detection System. TAQMAN™ FAST UNIVERSAL PCR MASTER MIX™ (ABI, CA) was used with 20 ng of reverse transcribed RNA in a total reaction volume of 20 μl. Each cDNA sample was run in duplicate to allow correction of pipetting errors. Primers and FAM-labeled TAQMAN™ probes were used at concentrations of 200 nM. The level of expression for each target gene was normalized using the pre-developed Applied Biosystem's human glyceraldehyde-3-phosphate dehydrogenase (GAPDH) endogenous control kit. Primers and probes were designed using either ABI PRISM PRIMER EXPRESS™ software or a pre-developed ABI gene analysis kit. For each gene, either one of the primers or the probe were designed to be exon-boundary spanning. This eliminated the possibility of the primers/probe binding to any genomic DNA present. The primer and probe sets are listed as follows: Pdx-1 (Hs00426216), Insulin (Hs00355773), glucagon (Hs00174967), and FoxA2 (HNF 3-beta) (Hs00232764). The remaining primers were designed using the PRIMERS program (ABI, CA). After an initial 95° C. incubation for 20 sec, samples were cycled 40 times in two stages: a denaturation step at 95° C. for 3 sec, followed by an annealing/extension step at 60° C. for 30 sec. […]

[2] = tested on: early passage (P5) pancreatic-derived stromal cell line; details: for HNF-3 beta gene expression / Insulin gene expression / Pdx-1 gene expression / glucagon gene expression: 5 μM 0-24 h + 96-120 h
Procedure: as §1, §2, §3, §4, §5

[3] = tested on: late passage (P11) pancreatic-derived stromal cell line; details: for HNF-3 beta RT-PCR detection cycle / Pdx-1 RT-PCR detection cycle / glucagon RT-PCR detection cycle: 5.0 μM
Procedure: as §1, §2, §3, §4, §5

[4] = 5.0 μM, following first treatment
[5] = 5 μM 0-24 h + 96-120 h, 120 hrs

CC(/C=C/C(=O)NO)=C\[C@@H](C)C(=O)c1ccc(N(C)C)cc1 [trichostatin A]
Gata1 gene expression ([1]; 24 hrs): + (detectable between 35 and 40 cycles by RT-PCR) | HNF-3 beta gene expression ([1]; 24 hrs): +++ (detectable at less than 35 cycles by RT-PCR with SE less than 0.9) | Insulin gene expression ([1]; 24 hrs): nd (not detectable at >40 cycles by RT-PCR) | Pdx-1 gene expression ([1]; 24 hrs): +++ (detectable at less than 35 cycles by RT-PCR with SE less than 0.9) | sox17 gene expression ([1]; 24 hrs): +++ (detectable at less than 35 cycles by RT-PCR with SE less than 0.9) | Gata1 gene expression ([1]; 48 hrs): nd (not detectable at >40 cycles by RT-PCR) | HNF-3 beta gene expression ([1]; 48 hrs): +++ (detectable at less than 35 cycles by RT-PCR with SE less than 0.9) | Insulin gene expression ([1]; 48 hrs): nd (not detectable at >40 cycles by RT-PCR) | Pdx-1 gene expression ([1]; 48 hrs): nd (not detectable at >40 cycles by RT-PCR) | sox17 gene expression ([1]; 48 hrs): +++ (detectable at less than 35 cycles by RT-PCR with SE less than 0.9) | Gata1 gene expression ([1]; 72 hrs): nd (not detectable at >40 cycles by RT-PCR) | HNF-3 beta gene expression ([1]; 72 hrs): + (detectable between 35 and 40 cycles by RT-PCR) | Insulin gene expression ([1]; 72 hrs): + (detectable between 35 and 40 cycles by RT-PCR) | Pdx-1 gene expression ([1]; 72 hrs): nd (not detectable at >40 cycles by RT-PCR) | sox17 gene expression ([1]; 72 hrs): +++ (detectable at less than 35 cycles by RT-PCR with SE less than 0.9) | Gata1 gene expression ([1]; 96 hrs): nd (not detectable at >40 cycles by RT-PCR) | HNF-3 beta gene expression ([1]; 96 hrs): + (detectable between 35 and 40 cycles by RT-PCR) | Insulin gene expression ([1]; 96 hrs): + (detectable between 35 and 40 cycles by RT-PCR) | Pdx-1 gene expression ([1]; 96 hrs): nd (not detectable at >40 cycles by RT-PCR) | sox17 gene expression ([1]; 96 hrs): +++ (detectable at less than 35 cycles by RT-PCR with SE less than 0.9) | Gata1 gene expression ([1]; 120 hrs): nd (not detectable at >40 cycles by RT-PCR) | HNF-3 beta gene expression ([1]; 120 hrs): +++ (detectable at less than 35 cycles by RT-PCR with SE less than 0.9) | Insulin gene expression ([1]; 120 hrs): nd (not detectable at >40 cycles by RT-PCR) | Pdx-1 gene expression ([1]; 120 hrs): +++ (detectable at less than 35 cycles by RT-PCR with SE less than 0.9) | sox17 gene expression ([1]; 120 hrs): +++ (detectable at less than 35 cycles by RT-PCR with SE less than 0.9) | Gata1 gene expression ([1]; 144 hrs): nd (not detectable at >40 cycles by RT-PCR) | HNF-3 beta gene expression ([1]; 144 hrs): +++ (detectable at less than 35 cycles by RT-PCR with SE less than 0.9) | Insulin gene expression ([1]; 144 hrs): nd (not detectable at >40 cycles by RT-PCR) | Pdx-1 gene expression ([1]; 144 hrs): nd (not detectable at >40 cycles by RT-PCR) | sox17 gene expression ([1]; 144 hrs): +++ (detectable at less than 35 cycles by RT-PCR with SE less than 0.9) | Gata-1 RT-PCR detection cycle ([1]; 1.25 μM, following the first addition): 37 cycles | Insulin RT-PCR detection cycle ([1]; 1.25 μM, following the media change): 36 cycles | HNF-3 beta RT-PCR detection cycle ([1]; 1.25 μM, initial treatment): 32 cycles | Pdx-1 RT-PCR detection cycle ([1]; 1.25 μM, initial treatment (37 before treatment)): 32 cycles | HNF-3 beta RT-PCR detection cycle ([1]; 1.25 μM, second treatment): 32 cycles | Pdx-1 RT-PCR detection cycle ([1]; 1.25 μM, second treatment): 34 cycles | HNF-3 beta gene expression ([2]; 24 hrs): +++ (detectable at less than 35 cycles by RT-PCR with SE less than 0.9) | Insulin gene expression ([2]; 24 hrs): nd (not detectable at >40 cycles by RT-PCR) | Pdx-1 gene expression ([2]; 24 hrs): ++ (detectable at less than 35 cycles by RT-PCR with SE greater than 0.9) | glucagon gene expression ([2]; 24 hrs): +++ (detectable at less than 35 cycles by RT-PCR with SE less than 0.9) | HNF-3 beta gene expression ([2]; 48 hrs): nd (not detectable at >40 cycles by RT-PCR) | Insulin gene expression ([2]; 48 hrs): nd (not detectable at >40 cycles by RT-PCR) | Pdx-1 gene expression ([2]; 48 hrs): nd (not detectable at >40 cycles by RT-PCR) | glucagon gene expression ([2]; 48 hrs): + (detectable between 35 and 40 cycles by RT-PCR) | HNF-3 beta gene expression ([2]; 72 hrs): nd (not detectable at >40 cycles by RT-PCR) | Insulin gene expression ([2]; 72 hrs): nd (not detectable at >40 cycles by RT-PCR) | Pdx-1 gene expression ([2]; 72 hrs): nd (not detectable at >40 cycles by RT-PCR) | glucagon gene expression ([2]; 72 hrs): + (detectable between 35 and 40 cycles by RT-PCR) | HNF-3 beta gene expression ([2]; 96 hrs): nd (not detectable at >40 cycles by RT-PCR) | Insulin gene expression ([2]; 96 hrs): nd (not detectable at >40 cycles by RT-PCR) | Pdx-1 gene expression ([2]; 96 hrs): nd (not detectable at >40 cycles by RT-PCR) | glucagon gene expression ([2]; 96 hrs): nd (not detectable at >40 cycles by RT-PCR) | HNF-3 beta gene expression ([2]; 120 hrs): + (detectable between 35 and 40 cycles by RT-PCR) | Insulin gene expression ([2]; 120 hrs): nd (not detectable at >40 cycles by RT-PCR) | Pdx-1 gene expression ([2]; 120 hrs): +++ (detectable at less than 35 cycles by RT-PCR with SE less than 0.9) | glucagon gene expression ([2]; 120 hrs): nd (not detectable at >40 cycles by RT-PCR) | HNF-3 beta gene expression ([2]; 144 hrs): nd (not detectable at >40 cycles by RT-PCR) | Insulin gene expression ([2]; 144 hrs): nd (not detectable at >40 cycles by RT-PCR) | Pdx-1 gene expression ([2]; 144 hrs): nd (not detectable at >40 cycles by RT-PCR) | glucagon gene expression ([2]; 144 hrs): + (detectable between 35 and 40 cycles by RT-PCR) | Pdx-1 RT-PCR detection cycle ([2]; 5.0 μM, after the second treatment): 32 cycles | glucagon RT-PCR detection cycle ([2]; 5.0 μM, end of the experiment): 38 cycles | HNF-3 beta RT-PCR detection cycle ([2]; 5.0 μM, following a second treatment): 36 cycles | HNF-3 beta RT-PCR detection cycle [2, 4]: 34 cycles | glucagon RT-PCR detection cycle [2, 4]: 35 cycles | Pdx-1 gene expression ([3]; 5 μM 0-24 h + 96-120 h, 24 hrs): + (detectable at less than 35 cycles with SE greater than 0.9) | Insulin gene expression ([3]; 5 μM 0-24 h + 96-120 h, 48 hrs): + (detectable at less than 35 cycles with SE greater than 0.9) | glucagon gene expression ([3]; 5 μM 0-24 h + 96-120 h, 48 hrs): + (detectable at less than 35 cycles with SE greater than 0.9) | glucagon gene expression ([3]; 5 μM 0-24 h + 96-120 h, 72 hrs): + (detectable at less than 35 cycles with SE greater than 0.9) | glucagon gene expression ([3]; 5 μM 0-24 h + 96-120 h, 96 hrs): + (detectable at less than 35 cycles with SE greater than 0.9) | HNF-3 beta gene expression [3, 5]: + (detectable at less than 35 cycles with SE greater than 0.9) | glucagon gene expression [3, 5]: + (detectable at less than 35 cycles with SE greater than 0.9) | glucagon gene expression ([3]; 5 μM 0-24 h + 96-120 h, 144 hrs): + (detectable at less than 35 cycles with SE greater than 0.9) | HNF-3 beta RT-PCR detection cycle ([3]; after the second treatment): 36 cycles | HNF-3 beta RT-PCR detection cycle ([3]; following first treatment): 32 cycles | Pdx-1 RT-PCR detection cycle ([3]; following first treatment): 31 cycles | glucagon RT-PCR detection cycle ([3]; following first treatment): 33 cycles | glucagon RT-PCR detection cycle ([3]; following the medium change): 38 cycles | Pdx-1 RT-PCR detection cycle ([3]; following the second addition): 34 cycles

From patent US20080063628A1, “METHODS TO PROMOTE CELL DIFFERENTIATION” (priority 2006, published 2008)
